Test results: PubChem BioAssay AID1963832 (Molecular Pharmacology Branch, DTP, NCI, 2024)

System: 885724-159-R-J1-PDC complex spheroid viability
Assay: Anticancer human tumor 885724-159-R-J1-PDC patient-derived pancreatic adenocarcinoma cell line growth inhibition [POLQ]
Conditions: for IC50: curve of first compound; for viability, T/C: stronger effect = lower value
Method: Multicellular complex tumor spheroid response to Polymerase (POL) inhibitors (novobiocin, ART-558, RP6685) in combination with a variety of drugs and investigational agents in selected tumor cell lines
The POL inhibitors (novobiocin, ART-558, and RP6685) were evaluated both individually and in combination with standard of care and investigational anticancer small molecules within a complex spheroid model of solid tumors. . Complex spheroids include a stromal component modeled by human endothelial cells (HUVEC) and fibroblasts modeled by human mesenchymal stem cells (MSCs). The concentration ranges selected for each drug and investigational agent were based upon clinically achievable concentrations if the clinical Cmax of the agent was known.
Compounds. The drugs and investigational agents: novobiocin (NSC847541), ART-558 (NSC835418), RP-6685 (NSC848927), peposertib (NSC802822), ceralasertib (NSC780249), elimusertib (NSC800525), camonsertib (NSC841442), AZD-1390 (NSC803789), olaparib (NSC753686), talazoparib (NSC767125), rucaparib (NSC756644), sotorasib (NSC818433), MRTX-1133 (NSC836407), SN-38 (NSC673596), topotecan (NSC609699), epotoside (NSC141540), doxorubicin (NSC123127), gemcitabine (NSC613327), 5-fluorouracil (NSC19893), paclitaxel (NSC125973), vemurafenib (NSC761431), MSA-2 (NSC828583), SN-011 (NSC837082), adavosertib (NSC754352), prexasertib (NSC758257), carboplatin (NSC241240) and oxaliplatin (NSC266046), were obtained from the National Cancer Institute (NCI) Developmental Therapeutics Program Chemical Repository (21). The FDA-approved anticancer drug set is available from the Developmental Therapeutics Program at https://dtp.cancer.gov/organization/dscb/obtaining/. […] The stock solutions were prepared in dimethyl sulfoxide (DMSO, Sigma-Aldrich, St. Louis, MO, cat. D2650), except for the platinum compounds which were prepared in saline (Quality Biological, Gaithersburg, MD, cat. 114-055-101), at 800-fold the tested concentration and stored at -70 degrees C prior to their use. All drugs and investigational agents were tested over a range starting from a high concentration at or near the clinical Cmax and decreasing in half-log increments. If the clinical Cmax for an agent had not been determined, the highest concentration tested was 10 microM, except for SN-38, which was tested at a high concentration of 1 microM.
Cell Culture. All cells were maintained in an incubator at 37 degrees C and 5% CO2 with 95% humidity. The PDC lines were cultured according to standard operating procedures established by the NCI PDMR (https://pdmr.cancer.gov). Table 3 of the manuscript, lists the cell lines along with the number of the three cell types plated to form the mct-spheroids and media for tumor cell growth. After thawing, all PDC lines, except 997537-175-T-J1-PDC and 415267-285-R-J2-PDC, were cultured in Matrigel-coated flasks prepared with a working solution of 1X Ham's F-12 nutrient mix, without supplementation (Thermo Fisher Scientific, cat. 11765054), 100 U/mL penicillin-streptomycin (Thermo Fisher Scientific, cat. 15140122), and 2.5% Matrigel (Corning Inc., Corning, NY, cat. 354248) for the first three passages. The two PDC lines 997537-175-T-J1-PDC and 415267-285-R-J2-PDC were cultured on uncoated flasks. The 857933-349-R-J2-PDC line was cultured in 6C/Colon 1B media containing advanced DMEM/F-12 (Thermo Fisher Scientific, cat. 12634028), 10 mM HEPES (Thermo Fisher Scientific, cat. 15630080), 1X GlutaMAX supplement (Thermo Fisher Scientific, cat. 35050061), 0.1 mg/mL primocin (InvivoGen, San Diego, CA, cat. ant-pm-2), 10% defined fetal bovine serum, heat inactivated (HyClone Laboratories Inc., Logan, UT, cat. SH30070.03HI), 50% L-WRN conditioned media (ATCC, cat. CRL-3276), 1.25 mM N-Acetyl-L-cysteine (Sigma-Aldrich, cat. A9165), 10 mM nicotinamide (Sigma-Aldrich, cat. N0636), 1X B-27 supplement (Thermo Fisher Scientific, cat. 17504044), 1X N-2 supplement (Thermo Fisher Scientific, cat. […]

[1] = second compound 0.0316 µM, first compound 0.0316 µM
[2] = second compound 0.0316 µM, first compound 0.1 µM
[3] = second compound 0.0316 µM, first compound 0.316 µM
[4] = second compound 0.0316 µM, first compound 1 µM
[5] = second compound 0.0316 µM, first compound 3.16 µM
[6] = second compound 0.0316 µM, first compound 10 µM
[7] = second compound 0.1 µM, first compound 0.0316 µM
[8] = second compound 0.1 µM, first compound 0.1 µM
[9] = second compound 0.1 µM, first compound 0.316 µM
[10] = second compound 0.1 µM, first compound 1 µM
[11] = second compound 0.1 µM, first compound 3.16 µM
[12] = second compound 0.1 µM, first compound 10 µM
[13] = second compound 0.316 µM, first compound 0.0316 µM
[14] = second compound 0.316 µM, first compound 0.1 µM
[15] = second compound 0.316 µM, first compound 0.316 µM
[16] = second compound 0.316 µM, first compound 1 µM
[17] = second compound 0.316 µM, first compound 3.16 µM
[18] = second compound 0.316 µM, first compound 10 µM
[19] = second compound 1 µM, first compound 0.0316 µM
[20] = second compound 1 µM, first compound 0.1 µM
[21] = second compound 1 µM, first compound 0.316 µM
[22] = second compound 1 µM, first compound 1 µM
[23] = second compound 1 µM, first compound 3.16 µM
[24] = second compound 1 µM, first compound 10 µM
[25] = second compound 3.16 µM, first compound 0.0316 µM
[26] = second compound 3.16 µM, first compound 0.1 µM
[27] = second compound 3.16 µM, first compound 0.316 µM
[28] = second compound 3.16 µM, first compound 1 µM
[29] = second compound 3.16 µM, first compound 3.16 µM
[30] = second compound 3.16 µM, first compound 10 µM
[31] = second compound 10 µM, first compound 0.0316 µM
[32] = second compound 10 µM, first compound 0.1 µM
[33] = second compound 10 µM, first compound 0.316 µM
[34] = second compound 10 µM, first compound 1 µM
[35] = second compound 10 µM, first compound 3.16 µM
[36] = second compound 10 µM, first compound 10 µM
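Note: spheroids exposed to compounds for 7 days.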

Work on `COc1cc(C2c3cc4c(cc3C(OC3OC5COC(C)OC5C(O)C3O)C3COC(=O)C23)OCO4)cc(OC)c1O` (centres undefined) + COC1C(OC(N)=O)C(O)C(Oc2ccc3c(O)c(NC(=O)c4ccc(O)c(CC=C(C)C)c4)c(=O)oc3c2C)OC1(C)C yielded an IC50 (second compound 0.0316 µM) of 5.34 µM, an IC50 (second compound 0.1 µM) of 3.9 µM and an IC50 (second compound 0.316 µM) of 4 µM. It also gave an IC50 (second compound 1 µM) of 4.58 µM, an IC50 (second compound 3.16 µM) of 5.93 µM and an IC50 (second compound 10 µM) of 3.8 µM. For the same compound, the viability, T/C [1] was 96.7%, the viability, T/C [2] was 81.8% and the viability, T/C [3] was 67.8%. The viability, T/C [4] was 61.6%, the viability, T/C [5] was 56.2% and the viability, T/C [6] was 44.4%. The viability, T/C [7] was 93.7%, the viability, T/C [8] was 85.5% and the viability, T/C [9] was 72%. For the same compound, the viability, T/C [10] was 59.2%, the viability, T/C [11] was 53.8% and the viability, T/C [12] was 43.1%. For the same compound, the viability, T/C [13] was 92%, the viability, T/C [14] was 84.4% and the viability, T/C [15] was 75.7%. It also gave a viability, T/C [16] of 59.8%, a viability, T/C [17] of 54% and a viability, T/C [18] of 41.9%. The viability, T/C [19] was 100%, the viability, T/C [20] was 87.5% and the viability, T/C [21] was 71.3%. For the same compound, the viability, T/C [22] was 58.9%, the viability, T/C [23] was 58.2% and the viability, T/C [24] was 42.3%. The viability, T/C [25] was 92.5%, the viability, T/C [26] was 81.4% and the viability, T/C [27] was 69.8%. The viability, T/C [28] was 64.1%, the viability, T/C [29] was 53.5% and the viability, T/C [30] was 46.5%. For the same compound, the viability, T/C [31] was 90.6%, the viability, T/C [32] was 80% and the viability, T/C [33] was 64.7%. The viability, T/C [34] was 60.5%, the viability, T/C [35] was 54.4% and the viability, T/C [36] was 42.1%.
Work on `O=c1[nH]cc(F)c(=O)[nH]1` + COC1C(OC(N)=O)C(O)C(Oc2ccc3c(O)c(NC(=O)c4ccc(O)c(CC=C(C)C)c4)c(=O)oc3c2C)OC1(C)C yielded an IC50 (second compound 0.0316 µM) of over 10 µM, an IC50 (second compound 0.1 µM) of over 10 µM and an IC50 (second compound 0.316 µM) of over 10 µM. For the same compound, the IC50 (second compound 1 µM) was over 10 µM, the IC50 (second compound 3.16 µM) was over 10 µM and the IC50 (second compound 10 µM) was over 10 µM. For the same compound, the viability, T/C [1] was 103%, the viability, T/C [2] was 104% and the viability, T/C [3] was 91.6%. It also gave a viability, T/C [4] of 95.6%, a viability, T/C [5] of 89.4% and a viability, T/C [6] of 80.5%. The viability, T/C [7] was 117%, the viability, T/C [8] was 96.3% and the viability, T/C [9] was 101%. It also gave a viability, T/C [10] of 97%, a viability, T/C [11] of 88.4% and a viability, T/C [12] of 67.5%. The viability, T/C [13] was 99%, the viability, T/C [14] was 91.9% and the viability, T/C [15] was 103%. The viability, T/C [16] was 93.8%, the viability, T/C [17] was 80.3% and the viability, T/C [18] was 73.6%. For the same compound, the viability, T/C [19] was 119%, the viability, T/C [20] was 108% and the viability, T/C [21] was 100%. It also gave a viability, T/C [22] of 92.7%, a viability, T/C [23] of 89.6% and a viability, T/C [24] of 71.8%. It also gave a viability, T/C [25] of 104%, a viability, T/C [26] of 94.1% and a viability, T/C [27] of 92.3%. The viability, T/C [28] was 98.8%, the viability, T/C [29] was 83.5% and the viability, T/C [30] was 73.8%. The viability, T/C [31] was 113%, the viability, T/C [32] was 86.8% and the viability, T/C [33] was 92.9%. It also gave a viability, T/C [34] of 96.4%, a viability, T/C [35] of 83.2% and a viability, T/C [36] of 70.8%.
